US8614246B2, “Indole derivatives for treating neurodegenerative diseases” (Centre National de la Recherche Scientifique (CNRS), priority 2009, dated 2013)

What was measured:
[1] = Test with ABTS (anti-oxidant capacity, hydroxyl radicals generated by Fenton's reaction); format: biochemical; settings: 30 minutes at ambient temperature, range 10 nM to 1 mM, read-out: IC50 ± SEM (concentration at which 50% of hydroxyl radicals have been reduced) (converted)
From the text: ABTS or 2,2′-azino-bis-(3-ethylbenzthiazoline-6-sulfonic) acid is a coloured indicator of the presence of hydroxyl radicals in solution. The attack of a hydroxyl radical on ABTS generates the formation of an ATBS^+. cation radical (Equation 1). This coloured entity makes the absorbance (Abs) of the solution equal to 450 nm. ABTS+HO. ? ABTS^+. +HO^− Equation 1
During the test, hydroxyl radicals are generated by Fenton's reaction in the presence of iron and hydrogen peroxide (Equation 2) H2O2+Fe^2+ ? HO. +HO^−+Fe^3+ Equation 2
When a radical trap or antioxidant is present in solution, competition with ABTS is set up for reduction of hydroxyl radicals, which reduces the absorbance (Abs) at 450 nm.
The percentage of hydroxyl radicals converted into hydroxyl ions (% conversion) by the compound of interest may be calculated using Formula 1: […]
The anti-oxidant capacity of a compound may then be expressed in the form of IC50 that reflects the concentration at which 50% of hydroxyl radicals have been reduced by the tested compound.
Thus, the compounds to be tested and Trolox® were solubilised in ethanol so as to obtain solutions at 1 mM. We used cascade dilutions to obtain a concentration range varying from 1 mM to 10 nM. 90 μL of a 1:1 water-ethanol mixture was then added onto an ELISA 96-well plate, followed by 15 μL of an aqueous solution of ABTS at 1 mM, 15 μL of an aqueous solution of Fe2SO4 at 0.5 mM, 15 μL of each compound to be tested at different concentrations, and then 15 μl of an aqueous solution of hydrogen peroxide at 100 mM. The mixtures thus obtained were stirred at ambient temperature sheltered from air for 30 minutes, and the value of the absorbance at […] was then measured. The capacity of each compound to reduce hydroxyl radicals is determined by the reduction in absorbance at 450 nm, the control solution being composed of pure ethanol. Therefore, the ABTS test was made in comparison with Trolox®. The same ranges from 10 nm to 1 mM of indoles 1a, 1c, 1g, 1i, 2a, 4c, 2g, 2h and 2i were tested.

[2] = system: dopaminergic neurons (TH+ neurons) in primary cultures of ventral mesencephalon; assay: Neuroprotection: counting of remaining TH+ neurons in primary cultures of ventral mesencephalon (spontaneous death of dopaminergic neurons); format: cell-based; settings: Product 10 nM, 8 days culture, rat embryo ventral mesencephalon; untreated control = 100
Protocol: Dissection. Dissection consists of extracting embryos from the uterus of a rat after fifteen days of gestation. The brain of each embryo is then dissected under magnifying binoculars in order to extract the ventral mesencephalus.
Seeding. Mesencephalons are grouped in a flask containing 2 mL of L15 medium and then mechanically dissociated (30 repeat operations), 5 mL of L15 medium are added. The suspension is allowed to stand for 8 minutes. The 5 mL float is then recovered in a new flask and the cells are dissociated again (30 repeat operations). 5 mL of L15 is added again and the suspension is left to stand for 8 minutes. The 5 mL float is added to the previous float. The cells thus extracted are then centrifuged for 5 minutes at 1000 rpm^−1. The cell sediment is dissolved in a Neurobasal medium supplemented with 1% of B27, 1% of glutamine and 1% of a mixture of penicillin and streptomycin. The cells are then seeded at an appropriate dilution (0.6 embryos per well in 24-well plates and 0.4 per well in 48-well plates). The cultures are incubated at 37° C. in a wet atmosphere enriched with 5% CO2 in 24-well or 48-well plates.
Treatment. After 24 hours, two-thirds of the medium in each well is replaced by a new medium enriched with the product to be tested at the appropriate dilution. The medium is replaced in the same way after 4 days of culture.
Immunohistochemistry. After 8 days culture, the cells are fixed by a solution of 4% formaldehyde and then washed three times with PBS. The cells are then submitted to anti-tyrosine hydroxylase (TH) immunohistochemistry, developed by a secondary antibody coupled to a fluorophore emitting in the red (Cy3).
Analyses. Neuroprotection is evaluated by counting positive TH neurons with 10 fields per well directly under an inverted fluorescence microscope, reported as a percentage of the untreated control. Experiments are done on three wells per condition. Three independent experiments are done under these conditions. The total neuritic length per cell is calculated using Explora Nova's Neurite Outgrowth software on 60 to 100 neurons photographed independently per condition.
Primary cultures of ventral mesencephalon of rat embryos after 15.5 days of gestation under conditions causing spontaneous death of dopaminergic neurons, are maintained in the presence or absence of the compounds to be tested for 8 days. After fixing, the cultures are submitted to immunocytochemistry directed against tyrosine hydroxylase, a specific marker of dopaminergic neurons.
The neuroprotective potential of each compound is then estimated by counting the number of remaining neurons (TH^+ neurons) under a fluorescence microscope. The results for the different treatments are expressed as a percentage of the number of neurons remaining relative to untreated cultures (Control).
All experiments were done by comparison with a positive control, dibutyryl-AMP cyclic (db-AMPc) (Mourlevat S. et al. Mol. Pharmacol. 2003, 64 (3), 578-586).

[3] = system: reactive oxygen species (ROS) in neurones of ventral mesencephalon cultures; assay: Cellular test with dihydrorhodamine 123 (DHR-123); format: cell-based, rat; settings: compounds 10 nM for eight days, 50 μM DHR-123 30 minutes; control = 100; Trolox at 10 μM per FIG. 1
Protocol: Dihydrorhodamine 123 or DHR123 is used as an indicator of reactive oxygen species (ROS). It is uncharged and not fluorescent and passes passively through the cellular membrane before being oxidised in contact with free radicals, into rhodamine 123 emitting green fluorescence.
The quantity of intracellular ROS is reduced when the cells are treated by an anti-oxidant. This reduction results in a quantifiable decay in emitted fluorescence in the presence of DHR123.
In order to conclude the role of the anti-oxidant capacity of compounds according to the invention in the observed neuroprotectrive activity, the cultures were placed strictly under the same conditions as for the neuroprotection/neuritogenesis test. Thus, the cultures were kept for eight days in the presence of a concentration of 10 nM of each of the tested tryptaminic derivatives. On the 8th day in vitro (DIV 8), 50 μM of DHR-123 (Sigma) was added and the cells were incubated for 30 minutes at 37° C. They were then washed three times, treated once again by compounds according to the invention and placed in a medium without any phenol red. Living fluorescent neurones that were immediately photographed can be observed, the fluorescence density per neurone being quantified under an inverted fluorescence microscope by an image analysis software.

## CCCCCCCCCCCCCCCCNCCc1c[nH]c2ccccc12 [Compound 2c, N-(2-(1H-indol-3-yl)ethyl)hexadecan-1-amine]
[1]
  IC50: 620 µM
[2]
  TH+ neurons, % relative to control ± SEM: 131.9 ± 4.7 %
[3]
  IF/neurone (%) (fluorescence intensity per neurone): 47.8 ± 4.7 %
